Measured values taken from patent publication US6696494B2, “α-hydroxyarylbutanamine inhibitors of aspartyl protease” (Enanta Pharmaceuticals, Inc., priority 2001, dated 2004).

Biological target: HIV-1 protease (Human immunodeficiency virus type 1 group M subtype B, UniProt P04585)
Test: Inhibition of microbial expressed viral protease (HIV-1 protease), method of Toth and Marshall
Assay type: biochemical
Procedure: Biological Assay for Inhibition of Microbial Expressed Viral Protease
The inhibition constants against HIV-1 protease were measured using the method described by M. V. Toth and G. R. Marshall, Int. J. Peptide protein Res., 1990, 544. The method described M. W. Pennington et al., Peptides 1990, Gimet, E. and D. Andrew, Eds., Escom; Leiden, Netherlands (1990) may also be used. The potency is measured as IC50in μM. The person of skill would accept these tests as predictive of the compounds' utility in vivo to treat HIV infected patients.

SMILES	IC50 [µM]
CC(C)CNC(=O)c1ccccc1CC[C@@H](O)[C@H](Cc1ccccc1)NC(=O)OC(C)(C)C [Example 000156]	< 0.1
CC(C)(C)NC(=O)c1ccccc1CC[C@@H](O)[C@H](Cc1ccccc1)NC(=O)O[C@H]1CCOC1 [Example 000180]	< 0.1
CCOC(=O)NC(Cc1ccccc1)C(O)C=Cc1ccccc1C(=O)NC(C)(C)C (stereo not shown) [Example 000207]	0.1 to 10
CC(C)(C)NC(=O)c1ccccc1CC[C@@H](O)[C@H](Cc1ccccc1)NC(=O)N1c2ccccc2Sc2ccccc21 [Example 00241]	> 10
C[C@H](O)C(=O)N[C@@H](Cc1ccccc1)[C@H](O)CCc1ccccc1C(=O)NC(C)(C)C [Example 000242]	0.1 to 10
CC(Oc1ccccc1)C(=O)NC(Cc1ccccc1)C(O)CCc1ccccc1C(=O)NC(C)(C)C (stereo not shown) [Example 000243]	0.1 to 10
CC(C)(C)NC(=O)c1ccccc1CC[C@@H](O)[C@H](Cc1ccccc1)NC(=O)COc1ccccc1 [Example 000244]	0.1 to 10
CC(C)(C)NC(=O)c1ccccc1CC[C@@H](O)[C@H](Cc1ccccc1)NC(=O)c1ccccc1 [Example 000245]	0.1 to 10
CCCCNC(=O)c1ccccc1CC[C@@H](O)[C@H](Cc1ccccc1)NC(=O)OC(C)(C)C [Example 000344]	0.1 to 10
CC(C)(C)NC(=O)c1ccccc1CC[C@@H](O)[C@H](Cc1ccccc1)NC(=O)COc1ccc2ccccc2c1 [Example 000760]	0.1 to 10
CC(C)(C)NC(=O)c1ccccc1CC[C@@H](O)[C@H](Cc1ccccc1)NC(=O)Cc1ccccc1 [Example 00762]	0.1 to 10
CC(C)(C)NC(=O)c1ccccc1CC[C@@H](O)[C@H](Cc1ccccc1)NC(=O)CCc1ccccc1 [Example 000763]	0.1 to 10
CC(C)CCNC(=O)c1ccccc1CC[C@@H](O)[C@H](Cc1ccccc1)NC(=O)OC(C)(C)C [Example 000766]	0.1 to 10
CCOC(=O)N[C@@H](Cc1ccccc1)[C@H](O)CCc1ccccc1C(=O)NCCC(C)C [Example 000770]	0.1 to 10
CCNC(=O)N[C@@H](Cc1ccccc1)[C@H](O)CCc1ccccc1C(=O)NC(C)(C)C [Example 000771]	0.1 to 10
CC(C)(C)NC(=O)c1ccccc1CC[C@@H](O)[C@H](Cc1ccccc1)NC(=O)NC(=O)CCl [Example 000869]	> 10
CCc1ccc(S(=O)(=O)N[C@@H](Cc2ccccc2)[C@H](O)CCc2ccccc2C(=O)NC(C)(C)C)cc1 [Example 000874]	0.1 to 10
CCC(C)(C)c1ccc(S(=O)(=O)N[C@@H](Cc2ccccc2)[C@H](O)CCc2ccccc2C(=O)NC(C)(C)C)cc1 [Example 000875]	0.1 to 10
CC(C)(C)NC(=O)c1ccccc1CC[C@@H](O)[C@H](Cc1ccccc1)NS(=O)(=O)c1ccc(C#N)cc1 [Example 000876]	0.1 to 10
CC(C)(C)NC(=O)c1ccccc1CC[C@@H](O)[C@H](Cc1ccccc1)NS(=O)(=O)c1ccc(C(F)(F)F)cc1 [Example 000877]	0.1 to 10
CC(C)(C)NC(=O)c1ccccc1CC[C@@H](O)[C@H](Cc1ccccc1)NS(=O)(=O)c1cccc2cccnc12 [Example 00878]	0.1 to 10
CC(C)(C)NC(=O)c1ccccc1CC[C@@H](O)[C@H](Cc1ccccc1)NS(=O)(=O)c1ccc(Br)c(Cl)n1 [Example 000879]	0.1 to 10
CC(C)(C)NC(=O)c1ccccc1CC[C@@H](O)[C@H](Cc1ccccc1)NS(=O)(=O)c1cccs1 [Example 000880]	0.1 to 10
CC(C)S(=O)(=O)N[C@@H](Cc1ccccc1)[C@H](O)CCc1ccccc1C(=O)NC(C)(C)C [Example 000881]	0.1 to 10
CC(C)(C)NC(=O)c1ccccc1CC[C@@H](O)[C@H](Cc1ccccc1)NC(=O)NC1CCCCC1 [Example 000882]	> 10

SMILES	IC50 [µM]
CC(C)(C)NC(=O)c1ccccc1CC[C@@H](O)[C@H](Cc1ccccc1)NC(=O)Nc1ccc([N+](=O)[O-])cc1 [Example 000889]	0.1 to 10
CCCCCNC(=O)N[C@@H](Cc1ccccc1)[C@H](O)CCc1ccccc1C(=O)NC(C)(C)C [Example 000890]	0.1 to 10
CCCCNC(=O)N[C@@H](Cc1ccccc1)[C@H](O)CCc1ccccc1C(=O)NC(C)(C)C [Example 000891]	0.1 to 10
CC(C)NC(=O)N[C@@H](Cc1ccccc1)[C@H](O)CCc1ccccc1C(=O)NC(C)(C)C [Example 000892]	0.1 to 10
CCc1ccc(NC(=O)N[C@@H](Cc2ccccc2)[C@H](O)CCc2ccccc2C(=O)NC(C)(C)C)cc1 [Example 000893]	0.1 to 10
Cc1ccc(CO)cc1C(=O)N[C@@H](Cc1ccccc1)[C@H](O)CCc1ccccc1C(=O)NC(C)(C)C [Example 000895]	< 0.1
COc1ccc(Br)c(C(=O)N[C@@H](Cc2ccccc2)[C@H](O)CCc2ccccc2C(=O)NC(C)(C)C)c1 [Example 000900]	0.1 to 10
CC(C)(C)NC(=O)c1ccccc1CC[C@@H](O)[C@H](Cc1ccccc1)NC(=O)c1ccc(F)cc1F [Example 000901]	0.1 to 10
CC(C)(C)NC(=O)c1ccccc1CC[C@@H](O)[C@H](Cc1ccccc1)NC(=O)c1ccc(Cl)cc1Cl [Example 000902]	0.1 to 10
CC(C)(C)NC(=O)c1ccccc1CC[C@@H](O)[C@H](Cc1ccccc1)NC(=O)c1ccc(N)cc1Cl [Example 000944]	> 10
Cc1c(N)cccc1C(=O)N[C@@H](Cc1ccccc1)[C@H](O)CCc1ccccc1C(=O)NC(C)(C)C [Example 000945]	> 10
CC(C)(C)NC(=O)c1ccccc1CC[C@@H](O)[C@H](Cc1ccccc1)NC(=O)c1cccc([N+](=O)[O-])c1Br [Example 000946]	> 10
CC(C)(C)NC(=O)c1ccccc1CCC(O)C(Cc1ccccc1)NC(=O)C(F)=Cc1ccccc1 (stereo not shown) [Example 000947]	> 10
CC(C)(C)NC(=O)c1ccccc1CC[C@@H](O)[C@H](Cc1ccccc1)NC(=O)c1cc(F)cc(F)c1 [Example 000948]	> 10
Cc1ccc(C(=O)C=CC(=O)NC(Cc2ccccc2)C(O)CCc2ccccc2C(=O)NC(C)(C)C)cc1 (stereo not shown) [Example 000950]	> 10
Cc1cccc(C)c1C(=O)N[C@@H](Cc1ccccc1)[C@H](O)CCc1ccccc1C(=O)NC(C)(C)C [Example 000951]	< 0.1
CN(C)c1ccc(C(=O)N[C@@H](Cc2ccccc2)[C@H](O)CCc2ccccc2C(=O)NC(C)(C)C)cc1 [Example 000954]	> 10
COc1cccc(OC)c1C(=O)N[C@@H](Cc1ccccc1)[C@H](O)CCc1ccccc1C(=O)NC(C)(C)C [Example 000966]	0.1 to 10
CC(C)(C)NC(=O)c1ccccc1CC[C@@H](O)[C@H](Cc1ccccc1)NC(=O)c1cc(Cl)cc(Cl)c1 [Example 000967]	0.1 to 10
CC(C)(C)NC(=O)c1ccccc1CC[C@@H](O)[C@H](Cc1ccccc1)NC(=O)c1ccccc1C(=O)c1ccccc1 [Example 00968]	0.1 to 10
CC(C)(C)NC(=O)c1ccccc1CC[C@@H](O)[C@H](Cc1ccccc1)NC(=O)c1c(F)cccc1F [Example 000969]	0.1 to 10
CC(C)(C)NC(=O)c1ccccc1CC[C@@H](O)[C@H](Cc1ccccc1)NC(=O)c1cc(N)ccc1Cl [Example 000971]	0.1 to 10
Cc1c(O)cccc1C(=O)N[C@@H](Cc1ccccc1)[C@H](O)CCc1ccccc1C(=O)NC(C)(C)C [Example 000972]	< 0.1
CC(C)(C)NC(=O)c1ccccc1CC[C@@H](O)[C@H](Cc1ccccc1)NC(=O)CCC(=O)c1ccc(F)cc1 [Example 000973]	< 0.1
